Data published in ChEMBL document CHEMBL3137381, “MMV Box Onchocerca lienalis screening set”.

Experiments:
Type in all cases: functional
Onchocerca lienalis [1] = assay: MMV: Percent motility assay at a compound concentration of 1.25e-5 M. Activity score legend: 3: Active, 2: Moderately active; 1: Inactive, 0: Toxic; conditions: at 12.5 µM
Onchocerca lienalis [2] = assay: MMV: Percent motility assay at a compound concentration of 7.8e-7 M. Activity score legend: 3: Active, 2: Moderately active; 1: Inactive, 0: Toxic; conditions: at 0.78 µM
Onchocerca lienalis [3] = assay: MMV: Percent motility assay at a compound concentration of 1.9e-7 M. Activity score legend: 3: Active, 2: Moderately active; 1: Inactive, 0: Toxic; conditions: at 0.19 µM
Onchocerca lienalis [4] = assay: MMV: Percent motility assay at a compound concentration of 3.1e-6 M. Activity score legend: 3: Active, 2: Moderately active; 1: Inactive, 0: Toxic; conditions: at 3.1 µM

SMILES	Motility (Onchocerca lienalis [1]) [%]	Motility (Onchocerca lienalis [2]) [%]	Motility (Onchocerca lienalis [3]) [%]	Motility (Onchocerca lienalis [4]) [%]
O=C(Nc1ccccc1O)c1ccc(Oc2cccc(C(=O)Nc3ccccc3O)c2)cc1	100	100	100	100
Oc1ccccc1CN1CCC2(CCCN(Cc3ccccc3F)C2)C1 (configuration not stated)	100	100	100	100
Cl.N=c1n(CCN2CCCCC2)c2ccccc2n1CC(O)c1cccc(Br)c1 (configuration not stated)	100	100	100	100
COc1cccc(O)c1CN1CCC2(CCCN(Cc3ccc(F)cc3)C2)C1 (configuration not stated)	100	100	100	100
COc1cccc(Nc2nc(NCCO)c3ccccc3n2)c1.Cl	100	100	100	100
Cc1ccc(-c2cc(C(=O)Nc3ccc(S(=O)(=O)N4CCCCC4)cc3)[nH]n2)c(O)c1	100	100	100	100
COc1ccc(C(=O)Nc2ccc3nc(N4CCCCC4)cc(C)c3c2)cc1OC	100	100	100	100
COc1ccc(N2CCN(C(CNC(=O)C3CCCCC3)c3ccc4c(c3)OCO4)CC2)cc1 (configuration not stated)	100	100	100	100
FC(F)(F)c1ccc(Nc2nnnc3ccccc23)cc1	100	100	100	100
COc1cccc(NC(=O)Cn2c(C)c(C#N)c3ccccc32)c1	100	100	100	100
Cn1c(=O)c2cc(C(=O)NCCCN3CCCCCC3)sc2c2ccccc21	100	100	100	100
Cc1[nH]c(-c2ccc(F)cc2)cc1C(=O)NC1CCN(Cc2ccccc2)CC1	100	100	100	100
COc1ccc(CCN2CCC(CN(C)Cc3cnn(-c4ccccc4)c3)CC2)cc1	100	100	100	100
O=C(NC(c1ccccc1)c1ccc2cccnc2c1O)c1ccccc1 (configuration not stated)	26.66	100	100	33.33
O=C(NC1CCCC1)c1ccc(N2CCC(NCc3cccc(C(F)(F)F)c3)CC2)cc1	100	100	100	100
CCOc1cc(Br)c(C(C)NC(=O)c2cccc(OC)c2)cc1OCC (configuration not stated)	100	100	100	100
CC(C)=CCN1CCC(C(=O)Nc2ccc(-c3nc4ccccc4[nH]3)cc2)CC1	100	100	100	100
CCN(CC)CCn1c(=N)n(CC(O)c2ccc(Cl)c(Cl)c2)c2ccccc21.Cl (configuration not stated)	100	100	100	100
CCOc1cc(Cl)c(C(C)NC(=O)c2cccc(OC)c2)cc1OCC (configuration not stated)	100	100	100	100
FC(F)(F)c1cccc(Nc2nc(-c3ccccc3)nc3ncccc23)c1	100	100	100	100
CCN1CCN(c2cc(C)c3cc(NC(=O)c4ccc(OC)c(OC)c4)ccc3n2)CC1	100	100	100	100
Cc1ccc(Cl)cc1N1CCN(CCCNC(=O)C2CCN(c3nc4ccccc4[nH]3)CC2)CC1	100	100	100	100
COc1ccc(CNC2CCN(c3ccc(NC(=O)c4cccc(Cl)c4)cc3)CC2)cc1OC	100	100	100	100
Cc1ccc(CSCc2ccc(C(=O)NC3CC3)o2)cc1	100	100	100	100
CC(NCc1ccccc1)c1cc(Cl)ccc1O (configuration not stated)	100	100	100	100
O=C(Nc1ccc(CN2CCOCC2)cc1)c1ccc(-c2ccc(Br)cc2)o1	100	100	100	100
CC(=O)NCCc1nc2ccccc2n1Cc1ccc(C(C)C)cc1	100	100	100	100

SMILES	Motility (Onchocerca lienalis [1]) [%]	Motility (Onchocerca lienalis [2]) [%]	Motility (Onchocerca lienalis [3]) [%]	Motility (Onchocerca lienalis [4]) [%]
CN(C)c1ccc(-c2nc3cc(N)ccc3[nH]2)cc1	33.33	100	100	66.66
Cc1c(C)n(Cc2ccc(F)cc2)c2ccc(C(=O)NCc3ccco3)cc12	100	100	100	100
CCN(CC)c1ccc(NC(=O)c2cccs2)cc1	100	100	100	100
CCCC(c1nnnn1C1CCCCC1)N1CCN(C(=O)c2ccco2)CC1.Cl (configuration not stated)	100	100	100	100
CC(C)(C)C(=O)Nc1ccc(C(=O)Nc2cccc(-c3nc4ccccc4[nH]3)c2)cc1	100	100	100	100
COc1ccc(-c2nonc2NC(=O)c2cccc(C)c2)cc1OC	100	100	100	100
COc1cccc(-c2nn(C)c3sc(C(=O)NCCN4CCN(c5ccccc5F)CC4)cc23)c1	100	100	100	100
Cc1ccc(CN2CCC(C(=O)Nc3ccc(-c4cc5ccccc5[nH]4)cc3)CC2)o1	100	100	100	100
Cc1cc(C)c2nc(N3CCC(C(=O)NCCCN4CCC(N5CCCCC5)CC4)CC3)sc2c1	100	100	100	100
O=C(Nc1ccsc1C(=O)NC1CCCCC1)c1ccc(F)cc1	100	100	100	100
O=C(Nc1cccc(C(F)(F)F)c1)c1cc(Cl)ccc1O	0	100	100	53.33
CC(C)(C)c1ccc(C(=O)Nc2nc3ccccc3s2)cc1	100	100	100	100
COc1ccccc1CNC(=O)C1c2ccccc2C(=O)N(CC(C)C)C1c1cccs1 (configuration not stated)	100	100	100	100
COc1ccc(C2N(C)c3ccccc3N2C)cc1	100	100	100	100
CCN(CC)c1cc(C)c2cc(NC(=O)c3cccc(OC)c3)ccc2n1	100	100	100	100
CC(C)OCc1cc(CN2CCN(c3cccc(Cl)c3)CC2)c(O)c2ncccc12	0	100	100	100
O=C(Nc1ccc(F)c(Cl)c1)Nc1ccc(Cl)c(Cl)c1	0	100	100	100
CCOc1ccc(-c2nc(NC(=O)c3cccc(S(C)(=O)=O)c3)sc2C)cc1	100	100	100	100
COc1ccccc1N1CCN(C(CNS(=O)(=O)c2ccc(Cl)cc2)c2cccnc2)CC1 (configuration not stated)	100	100	100	100
CCCc1c(C)nc2ccccc2c1O	100	100	100	100
CCOc1c(Cl)cc(CNC(C)C(O)c2ccccc2)cc1OC (configuration not stated)	100	100	100	100
CCCN(CCC)CCCNC(=O)c1cc2c(-c3ccc(OC)c(OC)c3)nn(C)c2s1	100	100	100	100
CN1c2ccccc2N(C)C1c1ccc2c(c1)OCO2	100	100	100	100
O=C(NCC1Cc2cccc(-c3ccncc3)c2O1)c1csc2c1CCCC2 (configuration not stated)	100	100	100	100
C=C(C)CCC(C)N1CCC(N2CCC(C(=O)NCCc3ccccc3)CC2)CC1 (configuration not stated)	100	100	100	100
C=CCc1c(C)nc2ccccc2c1O	100	100	100	100
